Assay results published in patent publication US12187727B2, “Methods for antagonizing a melanocortin 4 receptor” (Pfizer Inc., priority 2020, dated 2025).
Like-named read-outs stand apart in the source and are kept apart here.

Molecular target: human Melanocortin-4 receptor (MC4R) (Homo sapiens (Human), UniProt P32245)
Experiment: Functional in vitro MC4R antagonist potency assay (cAMP HTRF in CHO cells)
Format: cell-based
Experimental: Example BB. Functional In Vitro MC4R Antagonist Potency Assay
The functional in vitro antagonist potency for test compounds was determined by monitoring intracellular cyclic adenosine monophosphate (cAMP) levels in Chinese hamster ovary (CHO—) cells stably expressing the human Melanocortin-4 receptor (MC4R). Following agonist activation, human MC4R associates with the G-protein complex causing the Gα subunit to exchange bound GDP for GTP, followed by dissociation of the Ga-GTP complex. The activated Gα subunit can couple to downstream effectors to regulate the levels of second messengers or cAMP within the cell. Thereby, determination of intracellular cAMP levels allows for pharmacological characterization. Intracellular cAMP levels are quantitated using a homogenous assay utilizing the Homogeneous Time-Resolved Fluorescence (HTRF) technology from CisBio. The method is a competitive immunoassay between native cAMP produced by cells and the cAMP labelled with the acceptor dye, d2. The two entities then compete for binding to a monoclonal anti-cAMP antibody labeled with cryptate. The specific signal is inversely proportional to the concentration of cAMP in the cells.
Test compounds were solubilized to 30 mM in 100% dimethyl sulfoxide (DMSO) and stored. […] The final compound concentration range in the assay was 400 nM to […], with a final DMSO concentration of 0.1%.
(95% O2: 5% CO2) overnight, with micro-clime lids (Labcyte, Cat No. LLS-0310). […] Cells were incubated with compound for 30 minutes at 37° C. (95% O2: 5% CO2) before addition of 5 μL EC80, agonist stimulation (200 nM α-melanocyte stimulating hormone, aMSH, Bachem) and another 30-minute incubation at 37° C. (95% O2: 5% CO2). Intracellular cAMP levels were quantified as per Cisbio's protocol (5 uL of D2 and then 5 uL Cryptate, incubated for 1-2 hours at room temperature).
Data expressed as nM cAMP were then normalized to control wells using Activity Base (IDBS). Zero percent effect (ZPE) was defined as nM of cAMP generated from ECK, agonist stimulation (200 nM aMSH). In the absence of an antagonist control compound, one hundred percent effect (HPE) was defined as nM of cAMP generated from assay buffer/vehicle only.

[1] = human MC4R in CHO cells, cAMP HTRF, 200 nM aMSH challenge, Kb from IC50 by Leff-Dougall equation, geometric mean, read-out: Kb (nM) Antagonist geometric
[2] = read-out: Kb (nM) Antagonist geometric mean

Sequence of human Melanocortin-4 receptor (MC4R) (P32245 whole entry): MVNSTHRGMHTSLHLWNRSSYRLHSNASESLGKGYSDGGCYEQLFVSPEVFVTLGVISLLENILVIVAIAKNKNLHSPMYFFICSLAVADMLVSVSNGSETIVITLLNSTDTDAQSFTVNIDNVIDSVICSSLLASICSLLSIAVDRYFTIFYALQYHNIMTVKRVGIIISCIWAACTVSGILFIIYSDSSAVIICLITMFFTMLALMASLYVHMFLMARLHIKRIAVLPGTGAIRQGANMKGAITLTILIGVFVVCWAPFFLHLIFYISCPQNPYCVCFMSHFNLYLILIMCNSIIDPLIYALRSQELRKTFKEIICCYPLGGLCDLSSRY

Kb [1] [nM]	Kb [2] [nM]	Compound	also measured
> 92	–	COc1cc([C@@H](C)C(=O)N2CC[C@@]3(CCc4cc(Cl)c(C)nc4N3)C2)c(F)cn1 (single isomer, unassigned) [Example 102]	–
19	–	COc1cc([C@](C)(F)C(=O)N2CC[C@@]3(CCc4cc(-c5ncccn5)c(C)nc4N3)C2)c(F)cn1 (single isomer, unassigned) [Example 148]	–
2.6	–	COc1cc([C@@H](C)C(=O)N2CC[C@@]3(CCc4cc(-c5nccc(C(F)(F)F)n5)c(C)nc4N3)C2)c(F)cn1 [Example 143, (2R)-2-(5-fluoro-2-methoxypyridin-4-yl)-1-{(2S)-7-methyl-6-[4-(trifluoromethyl)pyrimidin-2-yl]-3,4-dihydro-1H-spiro[1,8-naphthyridine-2,3′-pyrrolidin]-1′-yl}propan-1-one]	–
–	20	COc1cc([C@@H](C)C(=O)N2CC[C@@]3(CCc4cc(-c5ncc(C(F)F)cn5)c(C)nc4N3)C2)c(F)cn1 [Example 21, (2R)-1-{(2S)-6-[5-(difluoromethyl)pyrimidin-2-yl]-7-methyl-3,4-dihydro-1H-spiro[1,8-naphthyridine-2,3′-pyrrolidin]-1′-yl}-2-(5-fluoro-2-methoxypyridin-4-yl)propan-1-one]	–
–	0.6	[2H]C([2H])([2H])Oc1cc([C@@H](C)C(=O)N2CC[C@@]3(CCc4cc(-c5ncccn5)c(C)nc4N3)C2)c(F)cn1 [Example 74, (2R)-2-{5-fluoro-2-[(^2H3)methyloxy]pyridin-4-yl}-1-[(2S)-7-methyl-6-(pyrimidin-2-yl)-3,4-dihydro-1H-spiro[1,8-naphthyridine-2,3′-pyrrolidin]-1′-yl]propan-1-one]	–
> 1.1	–	COc1cc([C@@H](C)C(=O)N2CC[C@@]3(CCc4cc(-c5cnn(C)n5)c(C)nc4N3)C2)c(Cl)cn1 [Example 119, (2R)-2-(5-chloro-2-methoxypyridin-4-yl)-1-[(2S)-7-methyl-6-(2-methyl-2H-1,2,3-triazol-4-yl)-3,4-dihydro-1H-spiro[1,8-naphthyridine-2,3′-pyrrolidin]-1′-yl]propan-1-one]	–
0.11	–	COc1cc([C@@H](C)C(=O)N2CC[C@@]3(CCc4cc(-c5nc(C(F)F)n(C)n5)c(C)nc4N3)C2)c(F)cn1 [Example 122, (2R)-1-{(2S)-6-[5-(difluoromethyl)-1-methyl-1H-1,2,4-triazol-3-yl]-7-methyl-3,4-dihydro-1H-spiro[1,8-naphthyridine-2,3′-pyrrolidin]-1′-yl}-2-(5-fluoro-2-methoxypyridin-4-yl)propan-1-one]	–
–	3.2	COc1cc([C@@H](C)C(=O)N2CCC3(CCc4cc(-c5coc(C)n5)c(C)nc4N3)C2)c(F)cn1 (mixture of isomers) [Example 33, (2R)-2-(5-fluoro-2-methoxypyridin-4-yl)-1-[7-methyl-6-(2-methyl-1,3-oxazol-4-yl)-3,4-dihydro-1H-spiro[1,8-naphthyridine-2,3′-pyrrolidin]-1′-yl]propan-1-one]	–
–	24	COc1cc([C@@H](C)C(=O)N2CC[C@@]3(CCc4ccc(C)nc4N3)C2)nc(C)n1 (single isomer, unassigned) [Example 23, 2-(6-methoxy-2-methylpyrimidin-4-yl)-1-(7-methyl-3,4-dihydro-1H-spiro[1,8-naphthyridine-2,3′-pyrrolidin]-1′-yl)propan-1-one]	–
0.5	–	COc1cc(C(C)C(=O)N2CC[C@@]3(CCc4cc(-c5nc(C(F)F)n(C)n5)c(C)nc4N3)C2)nc(C)n1 (single isomer, unassigned) [Example 123]	–
9	–	COc1cc([C@@H](C)C(=O)N2CC[C@@]3(CCc4cc(-c5cnsc5)c(C)nc4N3)C2)c(F)cn1 [Example 150, (2R)-2-(5-fluoro-2-methoxypyridin-4-yl)-1-[(2S)-7-methyl-6-(1,2-thiazol-4-yl)-3,4-dihydro-1H-spiro[1,8-naphthyridine-2,3′-pyrrolidin]-1′-yl]propan-1-one]	–
–	–	COc1cc([C@@H](C)C(=O)N2CC[C@@]3(CCc4cc(-c5nnn(C)n5)c(C)nc4N3)C2)c(F)cn1 [Example 13, (2R)-2-(5-Fluoro-2-methoxypyridin-4-yl)-1-[(2S)-7-methyl-6-(2-methyl-2H-tetrazol-5-yl)-3,4-dihydro-1H-spiro[1,8-naphthyridine-2,3′-pyrrolidin]-1′-yl]propan-1-one]	Kb: 0.16 nM
29	–	COc1cc([C@@H](C)C(=O)N2CC[C@@]3(CCc4cc(-c5ccnnc5)c(C)nc4N3)C2)c(F)cn1 [Example 141, (2R)-2-(5-fluoro-2-methoxypyridin-4-yl)-1-[(2S)-7-methyl-6-(pyridazin-4-yl)-3,4-dihydro-1H-spiro[1,8-naphthyridine-2,3′-pyrrolidin]-1′-yl]propan-1-one]	–
20	–	COc1cc([C@@H](C)C(=O)N2CC[C@@]3(CCc4cc(-c5cncc(C)n5)c(C)nc4N3)C2)c(F)cn1 [Example 156, (2R)-2-(5-fluoro-2-methoxypyridin-4-yl)-1-[(2S)-7-methyl-6-(6-methylpyrazin-2-yl)-3,4-dihydro-1H-spiro[1,8-naphthyridine-2,3′-pyrrolidin]-1′-yl]propan-1-one]	–
–	0.12	COc1cc([C@@H](C)C(=O)N2CC[C@@]3(CCc4cc(-c5nc(C(F)(F)F)n(C)n5)c(C)nc4N3)C2)c(Cl)cn1 (single isomer, unassigned) [Example 94]	–
16	–	COc1cc([C@@H](C)C(=O)N2CC[C@@]3(CCc4cc(C5CCOCC5)c(C)nc4N3)C2)c(F)cn1 [Example 131, (2R)-2-(5-fluoro-2-methoxypyridin-4-yl)-1-[(2S)-7-methyl-6-(oxan-4-yl)-3,4-dihydro-1H-spiro[1,8-naphthyridine-2,3′-pyrrolidin]-1′-yl]propan-1-one]	–
1.1	–	COc1cc(C(C)C(=O)N2CC[C@@]3(CCc4cc(-c5nnn(C)n5)c(C)nc4N3)C2)nc(C(F)F)n1 (single isomer, unassigned) [Example 127]	–
–	19	COc1cc([C@@H](C)C(=O)N2CC[C@@]3(CCc4ccc(C)nc4N3)C2)c(F)cn1 (single isomer, unassigned) [Example 98]	–
–	0.4	COc1cc(OC)cc([C@@H](C)C(=O)N2CC[C@@]3(CCc4cc(-c5cnn(C)c5)c(C)nc4N3)C2)c1 (single isomer, unassigned) [Example 90]	–
1.2	–	COc1cc([C@@H](C)C(=O)N2CC[C@@]3(CCc4cc(-c5ncc(F)cn5)c(C)nc4N3)C2)c(F)cn1 [Example 146, (2R)-2-(5-fluoro-2-methoxypyridin-4-yl)-1-[(2S)-6-(5-fluoropyrimidin-2-yl)-7-methyl-3,4-dihydro-1H-spiro[1,8-naphthyridine-2,3′-pyrrolidin]-1′-yl]propan-1-one]	–
15	–	COc1cc([C@@H](C)C(=O)N2CC[C@@]3(CCc4cc(-c5cnc(C)s5)c(C)nc4N3)C2)c(F)cn1 [Example 153, (2R)-2-(5-fluoro-2-methoxypyridin-4-yl)-1-[(2S)-7-methyl-6-(2-methyl-1,3-thiazol-5-yl)-3,4-dihydro-1H-spiro[1,8-naphthyridine-2,3′-pyrrolidin]-1′-yl]propan-1-one]	–
0.93	–	COc1cc([C@@H](C)C(=O)N2CC[C@@]3(CCc4cc(-c5cnn(C)n5)c(C)nc4N3)C2)c(F)cn1 [Example 118, (2R)-2-(5-fluoro-2-methoxypyridin-4-yl)-1-[(2S)-7-methyl-6-(2-methyl-2H-1,2,3-triazol-4-yl)-3,4-dihydro-1H-spiro[1,8-naphthyridine-2,3′-pyrrolidin]-1′-yl]propan-1-one]	–
5.8	–	Cc1nc2c(cc1-c1nnn(C)n1)CC[C@@]1(CCN(C(=O)[C@H](C)c3ccc(C(F)(F)F)cc3)C1)N2 (single isomer, unassigned) [Example 109]	–
4	–	Cc1nc2c(cc1-c1nc(C(F)F)n(C)n1)CC[C@@]1(CCN(C(=O)Cc3ccc(F)c(F)c3)C1)N2 [Example 121, 1-{(2S)-6-[5-(difluoromethyl)-1-methyl-1H-1,2,4-triazol-3-yl]-7-methyl-3,4-dihydro-1H-spiro[1,8-naphthyridine-2,3′-pyrrolidin]-1′-yl}-2-(3,4-difluorophenyl)ethan-1-one]	–
–	4.1	Cc1nc2c(cc1-c1ncccn1)CC[C@@]1(CCN(C(=O)Cc3cc(F)c(F)c(F)c3)C1)N2 [Example 54, 1-[(2S)-7-methyl-6-(pyrimidin-2-yl)-3,4-dihydro-1H-spiro[1,8-naphthyridine-2,3′-pyrrolidin]-1′-yl]-2-(3,4,5-trifluorophenyl)ethan-1-one]	–
40	–	COc1cc([C@@H](C)C(=O)N2CC[C@@]3(CCc4cc(-c5cnc(C)nc5)c(C)nc4N3)C2)c(F)cn1 [Example 151, (2R)-2-(5-fluoro-2-methoxypyridin-4-yl)-1-[(2S)-7-methyl-6-(2-methylpyrimidin-5-yl)-3,4-dihydro-1H-spiro[1,8-naphthyridine-2,3′-pyrrolidin]-1′-yl]propan-1-one]	–
